Design in all cases: species or system Mytilus galloprovincialis
The test system of one experiment is mussel mantle edge. The experiment can be described thus: Ex-vivo incubation of mantle edge fragments, calcium quantification by MP-AES. To be noted: 4 h at 19-20 °C; CALCIIa 10 μM or ouabain 2 mM alone; MP-AES at 393.366 nm; mean ± SEM; control 400.67 ±13.83 ppm; SEM. The method, then:
Figure 7 Effect of the mussel calcitonin-like peptide on (A) calcium (ppm) concentration in the mantle edge and (B) calcium uptake by mantle cells of the Mediterranean mussel. (A) The quantity of calcium (ppm) present in the mantle edge after mussel CALCIIa peptide incubation was measured using a Microwave Plasma-Atomic Emission Spectrometer (MP-AES, Agilent) at 393.366 nm. A standard curve for calcium was performed before analysing the samples. In vitro mantle assays with CALCIIa peptide and with ouabain and control (culture medium and mantle) were repeated on at least 3 independent occasions. For each assay at least ten replicates were performed and the mantle edge distal to the umbo was used (one mantle fragment per replica). Prism GraphPad v5 software was used to assess the significance of differences between the groups using a One-way Anova and Tukey’s multiple comparison test. […] C - control (no peptide or ouabain); P - peptide (10 μM); O - ouabain (2 mM), OP - ouabain (2 mM) and peptide (10 μM); PreOP - pre -stimulation for 1 hour with the peptide followed by 4 hours incubation with OP. (B) Digital photographs of the mussel mantle cells in the presence (CALCIIa, 10 μM) or absence (control) of the mussel CALCIIa peptide. Calcium ions were stained with 50 mM of Calcein (green) and cell nuclei (blue) with DAPI (Acros Organics). An increase in cellular fluorescence represents an increase in calcium uptake. Fluorescence of the CALCIIa peptide stimulated cells was 1.9 times higher than the control. The average mantle cell size was 3–4 μm and fluorescent images were taken using a Leica DM IL microscope coupled to a Visicam HDMI 6 digital camera and photographs were analysed using ImageJ software (v. 1.52a) to calculate the fluorescence intensity and for image overlay. The scale bar is indicated.
The posterior mantle edge region of the Mediterranean mussel was collected and washed in culture medium. The composition of the culture medium was as described in[91] […]

Experiment [1] concerns alpha-carbonic anhydrase (CA) esterase activity in mussel mantle edge. The experiment can be described thus: Esterase (carbonic anhydrase) activity in mantle after ex-vivo incubation. To be noted: after exposure to CALCIIa 10 μM or ouabain 2 mM; 4-Nitrophenyl acetate substrate; n = 6. The protocol: (§1) (A) Esterase activity and (B) Acid phosphatase activity. Enzyme activity was quantified in protein extracts from the mantle of control or challenged samples that were incubated with the mussel CALCIIa peptide. Values represent the mean ± SEM (CA, n = 6 and TRAP, n = 10) performed in duplicate. Prism GraphPad v5 software was used to assess the significance of the differences between the groups using One-way Anova and Tukey’s multiple comparison test. […] C - control; P - peptide (10 μM); O - ouabain (2 mM), OP - ouabain (2 mM) and peptide (10 μM); PreOP - pre stimulation for 1 hour with the peptide and 4 hours incubation with OP.
(§2) The posterior mantle edge region of the Mediterranean mussel was collected and washed in culture medium. The composition of the culture medium was as described in[91] […] The culture medium was supplemented with heat inactivated 2% FBS (SIGMA-ALDRICH), 0.1% penicillin: streptomycin antibiotic mix (10.000 U:10 mg/ml, SIGMA-ALDRICH) and 250 μg/ml sterile filtered 1:100 amphotericin B solution (Sigma-Aldrich). The posterior mantle edge from mussels was collected into culture medium and cut into fragments of approximately 1–2 mm in length. […]
Esterase activity in the mussel posterior mantle edge (n = 6/experimental group) was quantified using a colorimetric assay that measures the conversion of the substrate 4-Nitrophenyl acetate to p-nitrophenolate[92]. […]

The subject of experiment [2] is acid phosphatase (AP) activity in mussel mantle edge. The experiment can be described thus: Acid phosphatase (TRAP) activity in mantle after ex-vivo incubation. To be noted: after exposure to CALCIIa 10 μM or ouabain 2 mM; TRAP assay, pNPP, pH 5.3; p < 0.05. The protocol: as §1, §2
Acid phosphatase activity of the mantle protein extracts (n = 6/ group) was determined using 96 well-plates (GREINER, Germany) and a tartrate resistant acid phosphatase (TRAP) assay as described in[93].

On to `C[C@@H]1O[C@@H](O[C@H]2C[C@@H](O)[C@]3(CO)[C@H]4[C@H](O)C[C@]5(C)[C@@H](C6=CC(=O)OC6)CC[C@]5(O)[C@@H]4CC[C@]3(O)C2)[C@H](O)[C@H](O)[C@H]1O` [Ouabain, ouabain], for which the “Calcium in the mantle edge after incubation” value with mussel mantle edge amounted to 588.71 ± 42.92 ppm. In addition, the “CA esterase activity in mantle edge (in words)” value in experiment [1] is on record as “neither of the bivalve CALCs or ouabain modified”. In addition, the “Acid phosphatase (AP) activity in mantle edge compared to control (in words)” value in experiment [2] is reported as “significantly decreased”.

(Values after publication PMC7200681, “The calcitonin-like system is an ancient regulatory system of biomineralization” (Scientific Reports, 2020).)
